# Source: patent publication US11014929B2, “Pyrazolopyrimidine compounds and uses thereof” (Incyte Corporation, priority 2016, dated 2021)
# Molecular target: HPK1 (Homo sapiens (Human), UniProt Q92918)
# Assay: HPK1 Kinase Binding Assay
# Conditions: LanthaScreen tracer 222 binding, active HPK1, one hour incubation at 25° C.
# Experimental: A stock solution of 1 mM test compound was prepared in DMSO. The compound plate was prepared by 3-fold and 11-point serial dilutions. 0.1 μL of the compound in DMSO was transferred from the compound plate to the white 384 well polystyrene plates. The assay buffer contained 50 mM HEPES, pH 7.5, 0.01% Tween-20, 5 mM MgCl2, 0.01% BSA, and 5 mM DTT. 5 μl of 4 nM active HPK1 (SignalChem M23-11G) prepared in the buffer was added to the plate. The enzyme concentration given was based on the given stock concentration reported by the vender. 5 μl of 18 nM tracer 222 (ThermoFisher PV6121) and 4 nM LanthaScreen Eu-Anti GST antibody (ThermoFisher PV5595) were added. After one hour incubation at 25° C., the plates were read on a PHERAstar FS plate reader (BMG Labtech). Ki values were determined.
# HPK1, sequence (Q92918 1-346): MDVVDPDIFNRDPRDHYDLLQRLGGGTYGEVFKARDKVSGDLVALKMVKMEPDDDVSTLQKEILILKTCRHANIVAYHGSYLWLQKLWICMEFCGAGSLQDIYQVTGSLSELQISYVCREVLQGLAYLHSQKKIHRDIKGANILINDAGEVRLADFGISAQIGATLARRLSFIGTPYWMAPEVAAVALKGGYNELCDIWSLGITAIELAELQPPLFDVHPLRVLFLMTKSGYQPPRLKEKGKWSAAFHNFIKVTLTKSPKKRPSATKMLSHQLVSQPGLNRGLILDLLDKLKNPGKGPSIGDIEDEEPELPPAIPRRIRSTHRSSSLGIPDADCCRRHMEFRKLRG
row,Ki,SMILES
1,≤ 100 nM,"CNC1CCc2cc(F)c(-c3ncc4[nH]nc(-c5ccc(N6CCOCC6)nc5)c4n3)c(F)c2C1 (stereo not shown) [Example 115, 6,8-Difluoro-N-methyl-7-(3-(6-morpholinopyridin-3-yl)-1H-pyrazolo[4,3-d]pyrimidin-5-yl)-1,2,3,4-tetrahydronaphthalen-2-amine]"
2,≤ 100 nM,"CCN(C)C(=O)N1CCN(c2ccc(-c3n[nH]c4cnc(-c5c(F)cc(CNC)cc5F)nc34)cn2)CC1 [Example 75, 4-(5-(5-(2,6-Difluoro-4-((methylamino)methyl)phenyl)-1H-pyrazolo[4,3-d]pyrimidin-3-yl)pyridin-2-yl)-N-ethyl-N-methylpiperazine-1-carboxamide]"
3,≤ 100 nM,"CNC1CCCc2c1ccc(F)c2-c1ncc2[nH]nc(-c3ccc(N4CCN(C)CC4)nc3)c2n1 (stereo not shown) [Example 120, 6-Fluoro-N-methyl-5-(3-(6-(4-methylpiperazin-1-yl)pyridin-3-yl)-1H-pyrazolo[4,3-d]pyrimidin-5-yl)-1,2,3,4-tetrahydronaphthalen-1-amine]"
4,≤ 100 nM,"Cc1cc2c(c(F)c1-c1ncc3[nH]nc(-c4ccc(N5CCN(C)CC5)nc4)c3n1)CNCC2 [Example 112, 8-Fluoro-6-methyl-7-(3-(6-(4-methylpiperazin-1-yl)pyridin-3-yl)-1H-pyrazolo[4,3-d]pyrimidin-5-yl)-1,2,3,4-tetrahydroisoquinoline]"
5,≤ 100 nM,"COc1ccncc1-c1ncc2[nH]nc(-c3ccc(N4CCN(C)CC4)nc3)c2n1 [Example 103, 5-(4-Methoxypyridin-3-yl)-3-(6-(4-methylpiperazin-1-yl)pyridin-3-yl)-1H-pyrazolo[4,3-d]pyrimidine]"
6,≤ 100 nM,"Cc1c2c(cc(F)c1-c1ncc3[nH]nc(-c4ccnc(N5CCN(C)CC5)c4)c3n1)CCNC2 [Example 107, 6-Fluoro-8-methyl-7-(3-(2-(4-methylpiperazin-1-yl)pyridin-4-yl)-1H-pyrazolo[4,3-d]pyrimidin-5-yl)-1,2,3,4-tetrahydroisoquinoline]"
7,≤ 100 nM,"CN1CCN(c2cc(-c3n[nH]c4cnc(-c5c(F)cc6c(c5F)CNCC6)nc34)ccn2)CC1 [Example 90, 6,8-Difluoro-7-(3-(2-(4-methylpiperazin-1-yl)pyridin-4-yl)-1H-pyrazolo[4,3-d]pyrimidin-5-yl)-1,2,3,4-tetrahydroisoquinoline]"
8,≤ 100 nM,"CNCc1cc(F)c(-c2ncc3[nH]nc(-c4ccc(N5CCC(C)(O)CC5)nc4)c3n2)c(F)c1 [Example 122, 1-(5-(5-(2,6-Difluoro-4-((methylamino)methyl)phenyl)-1H-pyrazolo[4,3-d]pyrimidin-3-yl)pyridin-2-yl)-4-methylpiperidin-4-ol]"
9,≤ 100 nM,"NC1CCCc2c1cc(F)c(-c1ncc3[nH]nc(-c4ccc(N5CCOCC5)nc4)c3n1)c2F (stereo not shown) [Example 117, 5,7-Difluoro-6-(3-(6-morpholinopyridin-3-yl)-1H-pyrazolo[4,3-d]pyrimidin-5-yl)-1,2,3,4-tetrahydronaphthalen-1-amine]"

# Second part, the compound before the results:
row,SMILES,Ki
1,"COc1cccc(F)c1-c1ncc2[nH]nc(-c3ccccc3)c2n1 [Example 12, 5-(2-Fluoro-6-methoxyphenyl)-3-phenyl-1H-pyrazolo[4,3-d]pyrimidine]",≤ 100 nM
2,"CNCc1cc(F)c(-c2ncc3[nH]nc(-c4ccc(C5CCNCC5)cc4)c3n2)c(F)c1 [Example 65, 1-(3,5-Difluoro-4-(3-(4-(piperidin-4-yl)phenyl)-1H-pyrazolo[4,3-d]pyrimidin-5-yl)phenyl)-N-methylmethanamine]",≤ 100 nM
3,"Cc1cccc(F)c1-c1ncc2[nH]nc(-c3ccc(N4CCNCC4)cc3)c2n1 [Example 59, 5-(2-Fluoro-6-methylphenyl)-3-(4-(piperazin-1-yl)phenyl)-1H-pyrazolo[4,3-d]pyrimidine]",≤ 100 nM
4,"Cc1cccc(F)c1-c1ncc2[nH]nc(-c3ccc(N4CCC(O)C4)cc3)c2n1 (stereo not shown) [Example 60, 1-(4-(5-(2-Fluoro-6-methylphenyl)-1H-pyrazolo[4,3-d]pyrimidin-3-yl)phenyl)pyrrolidin-3-ol]",≤ 100 nM
5,"CNCc1cc(F)c(-c2ncc3[nH]nc(-c4ccc(C(=O)NC)nc4)c3n2)c(F)c1 [Example 61, 5-(5-(2,6-Difluoro-4-((methylamino)methyl)phenyl)-1H-pyrazolo[4,3-d]pyrimidin-3-yl)-N-methylpicolinamide]",≤ 100 nM
6,"Cc1cccc(F)c1-c1ncc2[nH]nc(-c3ccc(N4CCCC(O)C4)cc3)c2n1 (stereo not shown) [Example 57, 1-(4-(5-(2-Fluoro-6-methylphenyl)-1H-pyrazolo[4,3-d]pyrimidin-3-yl)phenyl)piperidin-3-ol]",≤ 100 nM
7,"CNC(=O)c1ccc(-c2n[nH]c3cnc(-c4c(F)cccc4OC)nc23)cc1 [Example 38, 4-(5-(2-Fluoro-6-methoxyphenyl)-1H-pyrazolo[4,3-d]pyrimidin-3-yl)-N-methylbenzamide]",≤ 100 nM
8,"CNCc1cc(F)c(-c2ncc3[nH]nc(-c4ccc(N5CCN(CCO)CC5)cc4)c3n2)c(F)c1 [Example 73, 2-(4-(4-(5-(2,6-Difluoro-4-((methylamino)methyl)phenyl)-1H-pyrazolo[4,3-d]pyrimidin-3-yl)phenyl)piperazin-1-yl)ethanol]",≤ 100 nM
9,"COc1cccc(F)c1-c1ncc2[nH]nc(-c3ccc(C4CC4)cc3)c2n1 [Example 39, 3-(4-Cyclopropylphenyl)-5-(2-fluoro-6-methoxyphenyl)-1H-pyrazolo[4,3-d]pyrimidine]",≤ 100 nM
10,"COc1ccc(F)c(F)c1-c1ncc2[nH]nc(-c3ccc(N4CCN(C)CC4)cc3)c2n1 [Example 45, 5-(2,3-Difluoro-6-methoxyphenyl)-3-(4-(4-methylpiperazin-1-yl)phenyl)-1H-pyrazolo[4,3-d]pyrimidine]",≤ 100 nM
11,"COc1cccc(F)c1-c1ncc2[nH]nc(-c3cccc(CN4CCN(C)CC4)c3)c2n1 [Example 25, 5-(2-Fluoro-6-methoxyphenyl)-3-(3-((4-methylpiperazin-1-yl)methyl)phenyl)-1H-pyrazolo[4,3-d]pyrimidine]",≤ 100 nM
12,"COc1ccncc1-c1ncc2[nH]nc(-c3ccc(N4CCN(C)CC4)cc3)c2n1 [Example 102, 5-(4-Methoxypyridin-3-yl)-3-(4-(4-methylpiperazin-1-yl)phenyl)-1H-pyrazolo[4,3-d]pyrimidine]",≤ 100 nM
13,"COc1cccc(F)c1-c1ncc2[nH]nc(-c3cccc(N4CCCC4)c3)c2n1 [Example 28, 5-(2-fluoro-6-methoxyphenyl)-3-(3-(pyrrolidin-1-yl)phenyl)-1H-pyrazolo[4,3-d]pyrimidine]",100 to 500 nM
14,"Cn1cc(-c2n[nH]c3cnc(-c4c(F)cc(NC(=O)CN5CCCC5)cc4F)nc23)cn1 [Example 82, N-(3,5-Difluoro-4-(3-(1-methyl-1H-pyrazol-4-yl)-1H-pyrazolo[4,3-d]pyrimidin-5-yl)phenyl)-2-(pyrrolidin-1-yl)acetamide]",≤ 100 nM
15,"COc1cccc(F)c1-c1ncc2[nH]nc(-c3ccc(CN)cc3)c2n1 [Example 41, (4-(5-(2-Fluoro-6-methoxyphenyl)-1H-pyrazolo[4,3-d]pyrimidin-3-yl)phenyl)methanamine]",≤ 100 nM
16,"CNC(C)c1cc(F)c(-c2ncc3[nH]nc(-c4cnn(C)c4)c3n2)c(F)c1 (stereo not shown) [Example 85, 1-(3,5-Difluoro-4-(3-(1-methyl-1H-pyrazol-4-yl)-1H-pyrazolo[4,3-d]pyrimidin-5-yl)phenyl)-N-methylethanamine]",≤ 100 nM
